Measured values: paper PMC4254748 (Science (New York, N.Y.), 2014)

Tests used:
[1] = tested on: neo1Δ/NEO1 strain; experiment: Growth of the neo1Δ/NEO1 strain; type: cell-based, yeast; settings: OD600 for 24 hours
[2] = tested on: yeast heterozygous and homozygous deletion strains; experiment: HIP/HOP chemogenomic fitness profiling; type: cell-based; settings: for Chemogenomic response signature induced: HIPHOP profile
[3] = tested on: immortalized human leukemia cells; experiment: Mitochondrial effects in immortalized human leukemia cells; type: cell-based; settings: fig. S13

Question: `CC/C(=C(\c1ccccc1)c1ccc(OCCN(C)C)cc1)c1ccccc1` [Tamoxifen] was tested. Which “Induction of NEO1 haploinsufficiency” value [1] did it give?
Answer: The value was “Tamoxifen-induced NEO1 haploinsufficiency”.

Question: Which “Effect on tamoxifen-induced NEO1 haploinsufficiency” value [1] does the source give for `CO/C1=C\C(C)=C\[C@@H](C)[C@@H](O)[C@@H](C)C/C(C)=C/C=C/[C@H](OC)[C@@H]([C@@H](C)[C@@H](O)[C@H](C)[C@@]2(O)C[C@@H](O)[C@H](C)[C@@H](C(C)C)O2)OC1=O` [bafilomycin A] here?
Answer: The value was “rescued”.

Question: Which “Chemogenomic response signature induced” value [2] does the source give for `CCCCNC(=O)n1c(NC(=O)OC)nc2ccccc21` [benomyl] here?
Answer: The value was “induced a signature containing tubulin biogenesis and SWR1 complex genes”.

Question: For `OC(Cn1cncn1)(Cn1cncn1)c1ccc(F)cc1F` [fluconazole], which “HIP hit / strain with largest fitness defect” value ([2]; HIP profile) is on record?
Answer: Its value is “Erg11Δ/ERG11 strain represents a “hit””.

Question: How did the “Chemogenomic response signature induced” value [2] turn out when `COC(=O)Nc1nc2ccc(C(=O)c3cccs3)cc2[nH]1` [nocodazole] was run?
Answer: Its value is “induced a signature containing tubulin biogenesis and SWR1 complex genes”.

Question: Which results are given for `Oc1ccc(Cl)cc1Cc1cc(Cl)cc(Cc2cc(Cl)ccc2O)c1O` [trichlorophene]?
Answer: Chemogenomic response signature induced [2]: induced mitochondrial stress; Generation of mitochondrial reactive oxygen species [3]: increased; Reserve oxygen capacity [3]: reduction
